Measurements: patent publication US9457040B2, “Effective treatment of esophageal adenocarcinoma using triciribine and related compounds” (University of South Florida, priority 2007, dated 2016)

Columns and labels:
PKCα = PKCα (Homo sapiens, UniProt P17252); test: PKCα kinase activity / phospho-PKCα-T638 immunoblot; type: cell-based; conditions: anti-phospho-PKCα-T638 immunoblot
[1] = system: metastatic colorectal adenocarcinoma; conditions: patients; i.v. over 15 minutes 165 or 250 mg/m^2 once a week in three week intervals; cited from earlier work
[2] = system: advanced refractory malignancies; conditions: patients; i.v. infusion over fifteen minutes once every three weeks, 25 to 350 mg/m^2; cited from earlier work
[3] = cited from earlier work
advanced solid cancers = conditions: patients; i.v. days 1, 8, 15 and 22 of a 42 day cycle, 12 to 96 mg/m^2; cited from earlier work
[4] = system: advanced squamous cell carcinoma of the cervix; conditions: cited from earlier work

SMILES | kinase activity of PKCα (PKCα) | clinical usefulness [1] | therapeutic response [2] | toxicity [2] | solubility relative to the parent drug [3] | toxicity (advanced solid cancers) | responses among twenty-one evaluable patients ([4]; 5 day continuous infusion of at least 35 mg/m^2 every six weeks) | activity (authors' conclusion) ([4]; metastatic or recurrent squamous cell cancer of the cervix, this dose and schedule)
Cn1cc(C2=C(c3cn(CCCSC(=N)N)c4ccccc34)C(=O)NC2=O)c2ccccc21 [Ro 31-8220] | inhibited |  |  |  |  |  |  | 
CN1N=C(N)c2cn([C@@H]3O[C@H](COP(=O)(O)O)[C@@H](O)[C@H]3O)c3ncnc1c23 [TCN-P, triciribine phosphate] |  | lack of clinical usefulness | limited therapeutic responses | significant toxicity | more soluble than the parent drug | unexpected clinical toxicity | only two responses were observed | limited activity
